Measured values: patent US7115623B2, “PDE IV inhibitors” (Aska Pharmaceuticals Co., Ltd., priority 2001, dated 2006)

Tests used:
[1] = tested on: PDE IV isozymes separated from U937 culture cells; test: PDE IV inhibition ([3H]-cAMP hydrolysis); format: biochemical; conditions: cAMP 1 μM as substrate, 30° C., 20 minutes, Probit method
Protocol: PDE IV isozymes as used herein were separated from U937 culture cells by using an anion exchange chromatography. Type IV PDE isozyme was admixed with ethylene glycol (EG) to adjust the final EG concentration to 30%, then stored at −20° C. and diluted when used. The enzymatic activity for PDE IV was measured using cAMP as a substrate.
Each test compound was dissolved in DMSO to adjust the final concentration to 1% (2.5 μl/tube). Incubation buffer solution (pH7.5): • Tris-HCl (50 mM), magnesium chloride (6 mM), dithiothreitol (2.5 mM), 5-nucleotidase (4 μg/ml), bovine serum albumin (0.23 mg/ml), and cAMP (1 μM).
A mixture of the aforementioned test compound solution and the buffer solution was incubated at 30° C. for 20 minutes. The reaction was quenched by admixing with 1 ml of anion exchange resin slurry (AG1-X8, 200–400 meshes, chloride form; Bio-Rad) to absorb unreacted substrates. After the reaction stopped, the mixture was centrifuged at 800×g for 10 minutes, and the resulting supernatant was collected with vials in 250 μl aliquots. To each vial was added 5 ml of ACS-II (scintillator, Amersham). The radioactivity was measured with a liquid scintillator counter for [^3H]-adenosine and set as the PDE IV activity.

[2] = tested on: actively sensitized guinea pigs; test: Inhibition of antigen-induced immediate asthmatic response (airway resistance, Konzett-Rossler method); format: in vivo, Male Hartley outbred guinea pigs; conditions: orally, 60 minutes prior to antigen-challenge, ovalbumin-sensitized guinea pigs, Probit method; for ED50: Cavia porcellus
Protocol: Male Hartley outbred guinea pigs were sensitized by administering intraperitoneally physiological saline (0.5 ml) containing ovalbumin (1 mg, antigen) and 5×10^9 inactivated Bordetella pertussis dead cells (adjuvant). Eleven to thirteen days after the first sensitization, 0.05 ml of an ovalbumin solution (1 mg/ml) (ovalbumin is dissolved in physiological saline) was administered to the lateroabdominal region of each guinea pig intracutaneously. An establishment of sensitization was checked relying on cutaneous reaction. Only guinea pigs wherein significant reddening responses occurred 5 to 10 minutes later were employed in the next measurement test for airway resistance.
The guinea pigs (3 animals per group) actively sensitized in the above step (1) were employed to measure for their airway pressure according to Konzett-Rossler method (Arch. Exp. Path. Pharmakol., 195, 71 (1940)).
Thirteen days after the final sensitization, guinea pigs fasted overnight, and were on the next day anesthetized with a pentobarbital solution (30 mg/1.2 ml/kg, dissolved in physiological saline, intraperitoneal administration). After the guinea pigs were fixed in a supine position, their trachea was incised followed by insertion with one port of a 4-port cannula. Among the remaining 3 ports, 2 ports were connected to an artificial respirator (Model 683, Harvard). The animals were ventilated with 10 ml/kg of air per ventilation at a rate of 60 beats/min via the artificial respirator from the cannula. One port remainder was connected to a respiratory amplifier (AR-601G, Nihon Kohden, Japan) via an airflow resistance tube (TV-241T, Nihon Kohden, Japan) and a differential pressure transducer (TP-602T, Nihon Kohden, Japan) connected with a control box (RY-111S, Nihon Kohden, Japan). From a catheter inserted into a left carotid artery, blood pressures were monitored with a blood pressure measurement unit (AP641G, NEC Corp., Japan) via a blood pressure transducer (TP-300T, Nihon Kohden, Japan), and heart rates were recorded on a thermal recorder (WT-685G, Nihon Kohden, Japan), relying on blood pressure pulse waves after being led to a cardiograph unit (AT601G, Nihon Kohden, Japan).
After airway pressure became stable, an ovalbumin solution. (1 mg/ml, dissolved in physiological saline) was administered at a dose of 1 ml/kg via a tube with which the right jugular vein of guinea pigs was cannulated.
Each test compound was suspended in 0.5% CMC—Na solution and administered orally with an oral sound at a dose of 0.03 to 20 mg/2 ml/kg 60 minutes prior to the antigen-challenge. Control groups received only 0.5% CMC—Na solution in an equivalent amount. The pentobarbital-anesthetization and tracheal incision were conducted 30 minutes prior to the antigen-challenge.
Each percent reduction of increase in airway resistance (each test compound-administered group versus control group) was calculated according to the equation given below. ED50 was obtained by Probit method.

Male Marshall ferrets = test: Emetic action; format: in vivo; conditions: oral, observed within 12 hours
Protocol: Male Marshall ferrets (each group consisting of 3 animals) as used herein fasted overnight. On the next day, a suspension of each test compound in 0.5% CMC—Na solution was administered orally to the animals. […] Next, each maximum tolerance dose against emesis was obtained. SB207499 was used for the reference compound in this assay.

TNF-α production = test: Inhibition of TNF-α production in galactosamine- and LPS-stimulation; format: in vivo, C3H/HeN mice; conditions: Mus musculus; oral, 1 hour before i.v. galactosamine 800 mg/kg and LPS 5 μg/kg; serum TNF-α by ELISA 1 hour later
Protocol: A suspension of each test compound in 0.5% CMC—Na solution was administered orally to C3H/HeN mice at a dose of 0.10 to 10 mg/kg. One hour later, the animals received intravenously galactosamine at a dose of 800 mg/kg and LPS at a dose 5 μg/kg to raise the induction of TNF-α production. One hour later after the galactosamine- and LPS-administration, amounts of TNF-α in serum samples were measured by ELISA.

ICR mice = test: Toxicology study; format: in vivo; conditions: oral 300 mg/10 ml/kg
Protocol: Each Compound (Example Nos. 7 and 8) was administered orally to ICR mice (7 animals per group) as a test compound. […] Each test compound was suspended in 0.5% CMC—Na solution and given orally to the animal at a dose of 300 mg/10 ml/kg.

With O=c1c(CCC(O)c2ccncc2)cc2cccnc2n1-c1cccc([N+](=O)[O-])c1 (centres unmarked) [Example 20, 1-(3-nitrophenyl)-3-[3-hydroxy-3-(pyridin-4-yl)propyl]-1,8-naphthyridin-2(1H)-one] as the compound, how does the melting point read?
Its melting point is 235 to 236 °C.

Which melting point does the source give for CC(CCc1cc2cccnc2n(-c2cccc(N)c2)c1=O)c1ccncc1 (centres unmarked) [Example 13, 1-(3-Aminophenyl)-3-[3-methyl-3-(pyridin-4-yl)propyl]-1,8-naphthyridin-2(1H)-one] here?
The melting point was 83 to 91 °C.

With CC(=O)OC(CCc1cc2cccnc2n(-c2cccc([N+](=O)[O-])c2)c1=O)c1ccncc1 (centres unmarked) [Example 22, 1-(3-Nitrophenyl)-3-[3-acetyloxy-3-(pyridin-4-yl)propyl]-1,8-naphthyridin-2(1H)-one] as the compound, how does the melting point read?
The melting point was 69 to 71 °C.

Which melting point does the source give for O=c1c(CCCc2ccncc2)cc2cccnc2n1-c1ccc(Cl)c([N+](=O)[O-])c1 [Example 25, 1-(4-Chloro-3-nitrophenyl)-3-[3-(pyridin-4-yl)propyl]-1,8-naphthyridin-2(1H)-one] here?
Its melting point is 136 to 137 °C.

What does the source list for CC(CCc1cc2cccnc2n(-c2cccc([N+](=O)[O-])c2)c1=O)c1ccncc1 (centres unmarked) [Example No. 11, 1-(3-Nitrophenyl)-3-[3-methyl-3-(pyridin-4-yl)propyl]-1,8-naphthyridin-2(1H)-one]?
IC50 [1]: 0.07 µM; ED50 [2]: 0.12 mg/kg; melting point: 154 to 155 °C

With O=c1c(CCCc2ccncc2)cc2cccnc2n1-c1ccc2nonc2c1 [Example 27, 1-(2,1,3-Benzoxadiazol-5-yl)-3-[3-(pyridin-4-yl)propyl]-1,8-naphthyridin-2(1H)-one] as the compound, how does the melting point read?
The melting point was 192 to 194 °C.

For O=C(CCc1cc2cccnc2n(-c2cccc([N+](=O)[O-])c2)c1=O)c1ccncc1 [Example No. 17, 1-(3-Nitrophenyl)-3-[3-oxy-3-(pyridin-4-yl)propyl]-1,8-naphthyridin-2(1H)-one], which IC50 [1] is on record?
Its IC50 is 0.45 µM.

What about the ED50 [2] of the same compound?
Its ED50 is 0.71 mg/kg.

With COc1ccc(C2CNC(=O)C2)cc1OC1CCCC1 (centres unmarked) [Rolipram, reference compound] as the compound, how does the ED50 [2] read?
Its ED50 is 0.51 mg/kg.

For Nc1cccc(-n2c(=O)c(CCC(=O)c3cc[n+]([O-])cc3)cc3cccnc32)c1 [Example No. 19, 1-(3-Aminophenyl)-3-[3-oxo-3-(1-oxypyridin-4-yl)propyl]-1,8-naphthyridin-2(1H)-one], which “Inhibition of Asthmatic response ED50” value [2] is on record?
Its value is 0.38 mg/kg.

Which melting point does the source give for O=c1c(CCCc2cnccn2)cc2cccnc2n1-c1cccc([N+](=O)[O-])c1 [Example 6, 1-(3-Nitrophenyl)-3-[3-(pyrazin-2-yl)propyl]-1,8-naphthyridin-2(1H)-one] here?
Its melting point is 194 to 195 °C.

For O=c1c(CCCc2ccccn2)cc2cccnc2n1-c1ccc2nsnc2c1 [Example 3, 1-(2,1,3-Benzothiadiazol-5-yl)-3-[3-(pyridin-2-yl)propyl]-1,8-naphthyridin-2(1H)-one], which melting point is on record?
Its melting point is 169.5 to 170.5 °C.

Which melting point does the source give for O=c1c(CCCc2cncnc2)cc2cccnc2n1-c1cccc([N+](=O)[O-])c1 [Example 4, 1-(3-Nitrophenyl)-3-[3-(pyrimidin-5-yl)propyl]-1,8-naphthyridin-2(1H)-one] here?
Its melting point is 175 to 175.5 °C.

Which melting point does the source give for CC(=O)Nc1cccc(-n2c(=O)c(CCCc3ccncc3)cc3cccnc32)c1 [Example 10, 1-(3-Acetylaminophenyl)-3-[3-(pyridin-4-yl)propyl]-1,8-naphthyridin-2(1H)-one] here?
The melting point was 200 to 202 °C.

For O=c1c(CCCc2ccncc2)cc2cccnc2n1-c1cccc2nsnc12 [Example 24, 1-(2,1,3-Benzothiadiazol-4-yl)-3-[3-(pyridin-4-yl)propyl]-1,8-naphthyridin-2(1H)-one], which melting point is on record?
The melting point was 191 to 192 °C.

For O=c1c(CCCc2cccnc2)cc2cccnc2n1-c1ccc2nsnc2c1 [Example 2, 1-(2,1,3-Benzothiadiazol-5-yl)-3-[3-(pyridin-3-yl)propyl]-1,8-naphthyridin-2(1H)-one], which melting point is on record?
Its melting point is 173.5 to 174.5 °C.

Which melting point does the source give for CC(CCc1cc2cccnc2n(-c2cccc(N(C)C)c2)c1=O)c1ccncc1 (centres unmarked) [Example 15, 1-(3-Dimethylaminophenyl)-3-[3-methyl-3-(pyridin-4-yl)propyl]-1,8-naphthyridin-2(1H)-one] here?
The melting point was 148 to 154 °C.

With O=c1c(CCCc2cccnn2)cc2cccnc2n1-c1cccc([N+](=O)[O-])c1 [Example 5, 1-(3-Nitrophenyl)-3-[3-(pyridazin-3-yl)propyl]-1,8-naphthyridin-2(1H)-one] as the compound, how does the melting point read?
Its melting point is 234 to 235 °C.

With COc1ccc([C@]2(C#N)CC[C@@H](C(=O)O)CC2)cc1OC1CCCC1 [SB207499, cis-4-cyano-4-[3-(cyclopentyloxy)-4-methoxyphenyl]cyclohexane-1-carboxylic acid, reference compound] as the compound, how does the IC50 [1] read?
Its IC50 is 0.03 µM.

What about the ED50 [2] of the same compound?
Its ED50 is 20 mg/kg.

What about the “Emetic activity at a half of the ED50 dose” value (Male Marshall ferrets; a half of the ED50 dose of Assay Example 2) of the same compound?
Its value is “elicitation of emetic activity has been found”.

What about the ED50 (TNF-α production) of the same compound?
Its ED50 is 0.9 mg/kg.

With Nc1cccc(-n2c(=O)c(CCC(O)c3ccncc3)cc3cccnc32)c1 (centres unmarked) [Example 23, 1-(3-Aminophenyl)-3-[3-hydroxy-3-(pyridin-4-yl)propyl]-1,8-naphthyridin-2(1H)-one] as the compound, how does the melting point read?
The melting point was 209 to 211 °C.

For CN(C)c1cccc(-n2c(=O)c(CCCc3ccncc3)cc3cccnc32)c1 [Example 9, 1-(3-Dimethylaminophenyl)-3-[3-(pyridin-4-yl)propyl]-1,8-naphthyridin-2(1H)-one], which melting point is on record?
The melting point was 124 to 127 °C.

Which IC50 [1] does the source give for CC(CCc1cc2cccnc2n(-c2cccc([N+](=O)[O-])c2)c1=O)c1cc[n+]([O-])cc1 (centres unmarked) [Example No. 12, 1-(3-nitrophenyl)-3-[3-methyl-3-(1-oxypyridin-4-yl)propyl]-1,8-naphthyridin-2(1H)-one] here?
The IC50 was 0.13 µM.

And the ED50 [2]?
The ED50 was 0.21 mg/kg.

What about the melting point of the same compound?
Its melting point is 182.5 to 196.5 °C.

What does the source list for Nc1cccc(-n2c(=O)c(CCCc3cc[n+]([O-])cc3)cc3cccnc32)c1 [Example No. 8, 1-(3-Aminophenyl)-3-[3-(1-oxypyridin-4-yl)propyl]-1,8-naphthyridin-2(1H)-one]?
IC50 [1]: 0.067 µM; ED50 [2]: 1.2 mg/kg; Emetic actions at asthmatic response-inhibitory ED50 level (Male Marshall ferrets; dose = ED50 of Assay Example 2): no observation for emetic actions; Body weight gain (ICR mice): No reduction of body weight gains was observed; Mortality (ICR mice): None of the animals were died; Other parameters (general health conditions) (ICR mice): no abnormality was observed
